In data set [1] the test system is HIV-1 reverse transcriptase. The data set can be described thus: HIV-1 reverse transcriptase activity in culture supernatant of infected Sup T1 cells. The conditions noted are these: for Percent Inhibition of HIV-1 Reverse Transcriptase: 300 μM (adenosine and adenine 900 μM), 6 h pre-treatment, 96 h post-infection, average of triplicates. Format: cell-based. As for the experimental part: Sup T1 cells were treated with 2-5A or a phosphorothioate/phosphodiester derivative at 300 μM for 6 hours and then infected with HIV-1 at a multiplicity of infection (M.O.I) of approximately 0.1. Adenosine and adenine were tested at 900 μM. At 96 hours post-infection, culture supernatant was removed and HIV-1 RT activity was assayed in triplicate as described by Henderson et al., Virology 182:186-198 (1991). Briefly in this method, 25 μl of culture supernatant was added to a 50 μl cocktail containing 50 mM Tris (pH 8.0), 20 mM dithiothreitol, 10 mM MgCl2, 60 mM NaCl, 0.05 Nonidet p-40, 5 μg/ml oligodeoxythymidylic acid, 10 μg/ml polyriboadenylic acid, 10 μM deoxythymidine triphosphate and 1 mCi [^32 p]thymidine 5'-triphosphate. The mixture was incubated at 37° C. for 2 hours. Fifty microliters of the cocktail were then spotted onto diethylaminoethyl (DEAE) paper, dried, washed with 2× SSC solution (three times for 10 minutes each time) and 95% ethanol (two times for 5 minutes each time), dried and exposed to radiographic film for 18 to 24 hours at -80° C. The filters were cut and final quantitation was determined by scintillation spectrometry.

The subject of a further data set is serum phosphodiesterases. The data set can be described thus: Stability of 2-5A core derivatives to serum phosphodiesterase. The conditions noted are these: for Hydrolysis Products / % Hydrolysis: 300 μM, 37° C.; for Hydrolysis Products: 10% fetal calf serum, 6 h, identified by HPLC; for % Hydrolysis: RPMI-1640 + 10% fetal calf serum, 6 h (A2, A3: 20 min); for hydrolysis (in words): serum-containing medium. Format: in vitro ADME, fetal calf. As for the experimental part: The stability of authentic 2-5A and phosphorothioate/phosphodiester trimer and tetramer core derivatives (300 μM) was determined by incubation in 200 μL of RPMI-1640 medium supplemented with 10% fetal calf serum in 5% CO2 -in-air at 37° C. Aliquots (30 μL) were removed at time zero and 6 hours. The hydrolysis products were identified by HPLC as described in Kariko et al. , Biochemistry 26: 7127-7135 (1987).
No hydrolysis of the phosphorothioate/phosphodiester trimer core derivatives was observed. However, the phosphorothioate/phosphodiester tetramer core derivatives were hydrolyzed from the 5'- or 2',3'-terminus, depending on the location of the phosphorothioate-substituted internucleotide linkage.

In the next data set the test system is HIV-1 strain IIIB. The data set can be described thus: Inhibition of HIV-1-induced syncytia formation (infected centers assay). Format: cell-based. Particulars: for inhibition of syncytia formation (in words): 3×10^-4 M (adenosine 9×10^-4 M); for inhibition of HIV-1-induced syncytia formation: 3×10^-4 M, PBL infected with HIV-1 IIIB, Sup T1 cells, read at 72 h. The source says: FIG. 5A represents the results of an assay performed according to the method of Henderson et al., Virology 182: 186-198 (1991), indicating the inhibition of HIV-1 (IIIB)-induced syncytia formation by adenosine, 2-5A trimer or tetramer core or 2',5'- phosphorothioate/phosphodiester trimer derivatives: ARp *ApA, ASp *ApA, ApARp *A, ApASp *A, ARp *ApApA, ASp *ApApA, ApARp *ApA, ApASp *ApA, ApApARp *A, ApApASp *A.
FIG. 5B is the results of an assay performed according to the method of FIG. 5A with a 2',5'-phosphorothioate/phosphodiester tetramer derivative of 2-5A core.
The infected centers assay as described by Henderson et al., Virology 182: 186-198 (1991), was used to measure the ability of the phosphorothioate/phosphodiester derivatives of 2-5A trimer and tetramer cores to inhibit HIV-1 induced syncytia formation, an indicator of HIV-1 replication in T cells. Freshly isolated peripheral blood lymphocytes (PBL) were treated with 2-5A or derivatives for 2 h and infected with HIV-1 strain IIIB at a m.o.i. of approximately 0.1. The infected PEL were maintained in RPMI-1640 medium supplemented with 10% (v/v) heat-inactivated fetal calf serum at 37° C. in a humidified 5% CO2 in air atmosphere. After 48 h, the cells were washed twice in Hank's balaned salt solution, serially diluted and seeded into multiple wells of a 96-well microtiter plate. Immediately, 2×10^5 exponentially growing Sup T1 cells were added to each well; Sup T1 cells readily form a syncytium with a cell which is productively infected with HIV-1. The wells were examined daily for the presence of syncytia, using a tissue culture microscope. The first signs of syncytia formation can be seen in 12 h, with some complete syncytia developing by 24 h. Final results were read at 72 h. Each syncytium was counted as a single infected cell. The number of syncytia per seeded cell is determined and expressed as an infected center per infected cell. In the control (no 2-5A derivative added), 100% syncytia formation was equivalent to 12±3 syncytia per 200 HIV-1 infected cells.

For another data set, the system named is RNase L. The data set can be described thus: rRNA cleavage assay in L929 cell extracts (activation of RNase L). Format: biochemical. Particulars: 1 h at 30° C., > = no activation up to this concentration. The method, then:
FIG. 2A represents the results of a ribosomal RNA cleavage assay with 2',5'-phosphorothioate/phosphodiester trimer core 2-5A derivatives. The procedure was performed according to the method of Kariko et al., Biochemistry 26: 7127-7135 (1987). 2-5A oligomer (phosphodiester internucleotide linkage) is also included for comparison. L929 cell extracts were incubated in the absence (lane 1) or presence of p3 A3 at 10^-8 M (lane 2), ARp *ApA at 10^-6 M (lane 3), ASp *ApA at 10^-6 M (lane 4), ApARp *A at 10^-6 M (lane 5), ApASp *A at 10^-6 M (lane 6) or A3 at 10^-6 M (lane 7). The positions of 28S and 18S rRNA are shown; the arrows indicate the positions of the well-characterized specific cleavage products (SCP) of RNase L.
FIG. 2B represents the results of a ribosomal RNA cleavage assay performed according to the method of FIG. 2A with 2',5'-phosphorothioate/phosphodiester trimer 5'-monophosphate derivatives. L929 cell extracts were incubated in the absence (lane 1) or presence of p3 A3 at 2×10^-9 M (lane 2), pA3 at 10^-6 M (lane 3), pARp *ApA at 10^-7 M (lane 4), pASp *ApA at 10^-7 M (lane 5), pApARp *A at 2×10^-9 M (Lane 6), pApASp *A at 10^-7 M (lane 7).
FIG. 3A represents the results of a ribosomal RNA cleavage assay performed according to the method of FIG. 2A with 2',5'-phosphorothioate/phosphodiester tetramer core 2-5A derivatives. 2-5A oligomer (phosphodiester internucleotide linkage) is also included for comparison. L929 cell extracts were incubated in the absence (lane 1) or presence of p3 A4 at 10^-8 M (lane 2), A4 at 10^-5 M (lane 3), ARp *ApApA at 10^-5 M (lane 4), ASp *ApApA at 10^-5 M (lane 5), ApARp *ApA at 10^-5 M (lane 6), ApASp *ApA at 10^-5 M (lane 7), ApApARp *A at 10^-5 M (lane 8) or ApApASp *A at 10^-5 M (lane 9).
FIG. 3B represents the results of a ribosomal RNA cleavage assay performed according to the method of FIG. 2A with 2',5'-phosphorothioate/phosphodiester tetramer 5'-monophosphate derivatives. L929 cell extracts were incubated in the absence (lane 1) or presence of p3 A4 at 10^-8 M (lane 2), pA4 at 10^-6 M (lane 3), pARp *ApApA at 10^-6 M (lane 4), pASp *ApApA at 10^-6 M (lane 5), pApARp *ApA at 10^-8 M (lane 6), pApASp *ApA at 10^-5 M (lane 7), pApApARp *A at 10^-7 M (lane 8) or pApApASp *A at 10^-7 M (lane 9).
Activation of RNase L by the phosphorothioate/phosphodiester trimer and tetramer 2-5A derivatives was also measured in a rRNA cleavage assay using L929 cell extracts according to the method of Kariko et al. (1987), supra, in which extracts of L929 cells were incubated for 1 h at 30° C. in the presence or absence of 2-5A or 2-5A derivative. […] Authentic p3 A3 was active at 1×10^-8 M (FIG. 2A, lane 2). The corresponding 5'-monophosphates, pARp *ApA, pASp *ApA and pApARp *A, activated at 1×10^-7 M, 1×10^-7 M, and 2×10^-9 M, respectively (FIG. 2B, lanes 4-6), as compared with pA3 which was active at 1×10^-6 M (lane 3).

“And” between values parts separate entries of the source, which are not always exact repeats. Identical values can stand only once. “Also recorded” adds a separate entry of the source. Bounds are passed on as bounds.

The values below come from patent publication US5863905A, “2',5'-phosphorothioate/phosphodiester oligoadenylates and anti-viral uses thereof” (Temple University-Of The Commonwealth System of Higher …, priority 1997, dated 1999).

Take `Nc1ncnc2c1ncn2[C@@H]1O[C@H](CO[P@@](O)(=S)O[C@@H]2[C@H](O)[C@@H](COP(=O)(O)O[C@@H]3[C@H](O)[C@@H](COP(=O)(O)O[C@@H]4[C@H](O)[C@@H](CO)O[C@H]4n4cnc5c(N)ncnc54)O[C@H]3n3cnc4c(N)ncnc43)O[C@H]2n2cnc3c(N)ncnc32)[C@@H](O)[C@H]1O` [ApApARp *A, Adenylyl-(2'-5')-adenylyl-(2'-5')-(PR)-P-thioadenylyl-(2'-5')-adenosine]: the “Percent Inhibition of HIV-1 Reverse Transcriptase” value (“Percent Inhibition” for short) in data set [1] turned out to be 38%. In the data set with serum phosphodiesterases, the “Hydrolysis Products” value is listed as “inosine, hypoxanthine; also recorded: ApARp *A”; the “% Hydrolysis” value amounted to 30%; the “hydrolysis (in words)” value was “degraded from the 5'-terminus; also recorded: hydrolyzed from the 5'-terminus”. For the same compound, in the data set with HIV-1 strain IIIB, the “inhibition of syncytia formation (in words)” value was “most efficient inhibitors” and the “inhibition of HIV-1-induced syncytia formation” value was determined as 90%. In addition, in the data set on RNase L, the “concentration at which RNase L is activated to cleave rRNA to SCP” value (“concentration” for short) amounted to 10000 nM.

`Nc1ncnc2nc[nH]c12` [adenine, reference compound]: in data set [1], the “inhibition of HIV-1 RT activity (in words)” value is listed as “did not inhibit HIV-1 RT activity” and the “Percent Inhibition” value turned out to be 4%. The “inhibition of syncytia formation (in words)” value in the data set on HIV-1 strain IIIB was “not able to inhibit syncytia formation”.

In the case of `Nc1ncnc2c1ncn2[C@@H]1O[C@H](CO)[C@@H](O)[C@H]1O` [adenosine, reference compound], in data set [1], the “inhibition of HIV-1 RT activity (in words)” value is “did not inhibit HIV-1 RT activity” and the “Percent Inhibition” value is recorded as 0%. For the same compound, the “inhibition of syncytia formation (in words)” value in the data set on HIV-1 strain IIIB was “did not inhibit syncytia formation”. Besides, in the data set on HIV-1 strain IIIB (listed as Adenosine), the “inhibition of syncytia formation (in words)” value was “not able to inhibit syncytia formation”.

Turning to “(PR)-P-thioadenylyl-(2',5')-adenylyl-(2',5')-adenosine [ARp *ApA]”, in data set [1], the “Percent Inhibition” value is 32%. In the data set with serum phosphodiesterases, the “Hydrolysis Products” value was “not hydrolyzed” and the “% Hydrolysis” value is reported as 0%. Further, the “inhibition of HIV-1-induced syncytia formation” value with HIV-1 strain IIIB was determined as 10%. Moreover, in the data set with RNase L, the “concentration” value is greater than 1000 nM.

On to “(PR)-P-thioadenylyl-(2',5')-adenylyl-(2',5')-adenylyl-(2',5')-adenosine [ARp *ApApA]”, for which the “Percent Inhibition” value in data set [1] worked out at 57%. In the data set with serum phosphodiesterases, the “Hydrolysis Products” value is recorded as “inosine, hypoxanthine; also recorded: ARp *A”; the “% Hydrolysis” value is 50% and 100%; the “hydrolysis (in words)” value is recorded as “rapidly hydrolyzed from the 2',3'-terminus”. Besides, the “inhibition of HIV-1-induced syncytia formation” value in the data set on HIV-1 strain IIIB is 16%.

As to “(PS)-P-thioadenylyl-(2',5')-adenylyl-(2',5')-adenosine [ASp *ApA]”, the “Percent Inhibition” value in data set [1] came to 56%. For the same compound, in the data set with serum phosphodiesterases, the “Hydrolysis Products” value was “not hydrolyzed” and the “% Hydrolysis” value came to 0%. For the same compound, the “inhibition of HIV-1-induced syncytia formation” value in the data set on HIV-1 strain IIIB turned out to be 15%. In addition, the “concentration” value with RNase L was greater than 1000 nM.

As for “(PS)-P-thioadenylyl-(2',5')-adenylyl-(2',5')-adenylyl-(2',5')-adenosine [ASp *ApApA]”, in data set [1], the “Percent Inhibition” value was determined as 54%. For the same compound, in the data set on serum phosphodiesterases, the “Hydrolysis Products” value is recorded as “inosine, hypoxanthine; also recorded: ASp *A”; the “% Hydrolysis” value was 50% and 100%; the “hydrolysis (in words)” value is “rapidly hydrolyzed from the 2',3'-terminus”. The “inhibition of HIV-1-induced syncytia formation” value in the data set on HIV-1 strain IIIB turned out to be 18%.

With “Adenylyl-(2',5')-(PS)-P-thioadenylyl-(2',5')-adenylyl-(2',5')-adenosine [ApASp *ApA]”, in data set [1], the “Percent Inhibition” value came to 42%. In the data set with serum phosphodiesterases, the “Hydrolysis Products” value is given as “inosine, hypoxanthine; also recorded: ASp *ApA” and the “% Hydrolysis” value was determined as 50%. The “inhibition of HIV-1-induced syncytia formation” value with HIV-1 strain IIIB was 32%.

Take “Adenylyl-(2',5')-adenylyl-(2',5')-(PS)-P-thioadenylyl-(2',5')-adenosine [ApApASp *A]”: the “Percent Inhibition” value in data set [1] was 62%. Besides, in the data set with serum phosphodiesterases, the “Hydrolysis Products” value is reported as “inosine, hypoxanthine; also recorded: ApASp *A”; the “% Hydrolysis” value is given as 33%; the “hydrolysis (in words)” value was “degraded from the 5'-terminus; also recorded: hydrolyzed from the 5'-terminus”. Further, in the data set with HIV-1 strain IIIB, the “inhibition of syncytia formation (in words)” value is “most efficient inhibitors” and the “inhibition of HIV-1-induced syncytia formation” value is on record as 76%.
